In US20060276520A1 (priority 2002, published 2006):
Values joined by “and” are separate entries in the source; they are usually repeats but may differ in a detail not shown here. Identical values can stand only once. Like-named read-outs stand apart in the source and are kept apart here.

Experiments:
Experiment in all cases: biochemical
APC2/APC11 [1] = biological target: T1, APC2/APC11 (Homo sapiens, UniProt Q9NYG5+Q9UJX6)
MDM2/P53 = MDM2/P53 (Homo sapiens, UniProt Q00987)
APC2/APC11 [2] = biological target: T1, APC2/APC11; remark: listed apart in the source
ROC2/CUL5 = biological target: T2, ROC2/CUL5 (Homo sapiens, UniProt Q93034+Q9UBF6)
T2 sequence (Q9UBF6 1-113): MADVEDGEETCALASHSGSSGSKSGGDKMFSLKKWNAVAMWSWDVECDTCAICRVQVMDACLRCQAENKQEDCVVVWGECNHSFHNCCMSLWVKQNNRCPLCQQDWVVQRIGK
T2 sequence (Q93034 1-780): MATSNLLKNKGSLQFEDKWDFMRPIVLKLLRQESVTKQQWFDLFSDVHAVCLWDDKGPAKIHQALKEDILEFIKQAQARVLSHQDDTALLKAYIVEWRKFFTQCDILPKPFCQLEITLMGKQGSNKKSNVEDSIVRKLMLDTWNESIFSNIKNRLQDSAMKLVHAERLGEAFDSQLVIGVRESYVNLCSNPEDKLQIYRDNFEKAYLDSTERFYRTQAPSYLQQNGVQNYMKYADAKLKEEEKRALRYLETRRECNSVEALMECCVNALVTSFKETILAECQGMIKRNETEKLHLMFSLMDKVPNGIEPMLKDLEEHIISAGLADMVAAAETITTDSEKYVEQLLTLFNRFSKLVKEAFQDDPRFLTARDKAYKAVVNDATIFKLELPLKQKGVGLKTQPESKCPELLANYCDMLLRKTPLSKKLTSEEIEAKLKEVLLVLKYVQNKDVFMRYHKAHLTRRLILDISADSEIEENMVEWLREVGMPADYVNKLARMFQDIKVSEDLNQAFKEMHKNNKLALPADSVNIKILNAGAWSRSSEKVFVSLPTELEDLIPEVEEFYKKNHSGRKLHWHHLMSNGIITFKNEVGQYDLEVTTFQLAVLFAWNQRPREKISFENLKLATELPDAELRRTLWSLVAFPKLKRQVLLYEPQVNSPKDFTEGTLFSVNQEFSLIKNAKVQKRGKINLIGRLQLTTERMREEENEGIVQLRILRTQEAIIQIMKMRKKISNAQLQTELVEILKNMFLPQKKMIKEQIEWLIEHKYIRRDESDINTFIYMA

ROC1/CUL1 = ROC1/CUL1 (Homo sapiens, UniProt P62877+Q13616)
ROC1/CUL1, sequence (P62877 whole entry): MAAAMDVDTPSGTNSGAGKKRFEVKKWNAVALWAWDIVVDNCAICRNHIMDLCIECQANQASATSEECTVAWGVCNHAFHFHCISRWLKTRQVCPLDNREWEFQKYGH
ROC1/CUL1, sequence (Q13616 whole entry): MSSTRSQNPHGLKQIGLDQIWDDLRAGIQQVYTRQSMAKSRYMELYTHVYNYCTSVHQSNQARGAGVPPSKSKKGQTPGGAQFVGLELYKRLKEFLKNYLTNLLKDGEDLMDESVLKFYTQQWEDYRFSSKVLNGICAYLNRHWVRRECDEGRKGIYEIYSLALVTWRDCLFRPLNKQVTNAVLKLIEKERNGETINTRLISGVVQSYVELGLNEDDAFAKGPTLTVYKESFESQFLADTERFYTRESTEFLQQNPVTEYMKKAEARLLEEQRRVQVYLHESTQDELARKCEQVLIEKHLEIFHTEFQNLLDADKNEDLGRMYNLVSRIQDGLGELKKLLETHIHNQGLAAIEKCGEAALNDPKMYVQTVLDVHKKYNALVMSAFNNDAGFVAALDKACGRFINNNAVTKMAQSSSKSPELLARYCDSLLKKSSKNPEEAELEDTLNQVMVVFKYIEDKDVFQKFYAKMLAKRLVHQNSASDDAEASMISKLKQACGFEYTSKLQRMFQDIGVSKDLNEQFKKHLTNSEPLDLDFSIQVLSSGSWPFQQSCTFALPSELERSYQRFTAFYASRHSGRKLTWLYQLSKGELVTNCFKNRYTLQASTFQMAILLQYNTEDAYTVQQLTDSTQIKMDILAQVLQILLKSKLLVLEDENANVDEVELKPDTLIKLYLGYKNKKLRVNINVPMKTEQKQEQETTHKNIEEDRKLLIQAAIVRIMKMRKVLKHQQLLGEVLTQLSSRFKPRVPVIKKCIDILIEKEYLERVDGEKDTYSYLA

ROC1/CUL2 = ROC1/CUL2 (Homo sapiens, UniProt P62877+Q13617)
ROC1/CUL2, sequence (P62877 whole entry): as the sequence (P62877 whole entry) above
ROC1/CUL2, sequence (Q13617 whole entry): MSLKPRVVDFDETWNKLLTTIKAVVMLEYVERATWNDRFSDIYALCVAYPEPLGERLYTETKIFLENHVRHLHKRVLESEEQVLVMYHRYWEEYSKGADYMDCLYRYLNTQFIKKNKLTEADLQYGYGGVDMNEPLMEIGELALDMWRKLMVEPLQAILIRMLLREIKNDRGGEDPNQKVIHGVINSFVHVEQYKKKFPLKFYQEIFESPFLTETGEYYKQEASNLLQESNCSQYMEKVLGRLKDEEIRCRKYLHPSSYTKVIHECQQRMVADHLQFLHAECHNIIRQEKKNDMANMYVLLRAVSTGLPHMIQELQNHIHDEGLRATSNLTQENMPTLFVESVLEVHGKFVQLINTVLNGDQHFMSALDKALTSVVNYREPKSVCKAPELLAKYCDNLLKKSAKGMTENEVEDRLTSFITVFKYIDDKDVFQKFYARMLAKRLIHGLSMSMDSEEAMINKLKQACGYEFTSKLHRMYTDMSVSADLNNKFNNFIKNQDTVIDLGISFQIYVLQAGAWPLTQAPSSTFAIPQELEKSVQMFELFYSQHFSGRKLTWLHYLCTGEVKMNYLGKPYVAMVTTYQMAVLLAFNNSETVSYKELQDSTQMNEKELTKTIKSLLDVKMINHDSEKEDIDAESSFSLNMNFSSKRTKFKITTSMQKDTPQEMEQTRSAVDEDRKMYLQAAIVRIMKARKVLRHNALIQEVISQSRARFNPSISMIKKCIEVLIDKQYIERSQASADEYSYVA

T1 sequence (Q9UJX6 whole entry): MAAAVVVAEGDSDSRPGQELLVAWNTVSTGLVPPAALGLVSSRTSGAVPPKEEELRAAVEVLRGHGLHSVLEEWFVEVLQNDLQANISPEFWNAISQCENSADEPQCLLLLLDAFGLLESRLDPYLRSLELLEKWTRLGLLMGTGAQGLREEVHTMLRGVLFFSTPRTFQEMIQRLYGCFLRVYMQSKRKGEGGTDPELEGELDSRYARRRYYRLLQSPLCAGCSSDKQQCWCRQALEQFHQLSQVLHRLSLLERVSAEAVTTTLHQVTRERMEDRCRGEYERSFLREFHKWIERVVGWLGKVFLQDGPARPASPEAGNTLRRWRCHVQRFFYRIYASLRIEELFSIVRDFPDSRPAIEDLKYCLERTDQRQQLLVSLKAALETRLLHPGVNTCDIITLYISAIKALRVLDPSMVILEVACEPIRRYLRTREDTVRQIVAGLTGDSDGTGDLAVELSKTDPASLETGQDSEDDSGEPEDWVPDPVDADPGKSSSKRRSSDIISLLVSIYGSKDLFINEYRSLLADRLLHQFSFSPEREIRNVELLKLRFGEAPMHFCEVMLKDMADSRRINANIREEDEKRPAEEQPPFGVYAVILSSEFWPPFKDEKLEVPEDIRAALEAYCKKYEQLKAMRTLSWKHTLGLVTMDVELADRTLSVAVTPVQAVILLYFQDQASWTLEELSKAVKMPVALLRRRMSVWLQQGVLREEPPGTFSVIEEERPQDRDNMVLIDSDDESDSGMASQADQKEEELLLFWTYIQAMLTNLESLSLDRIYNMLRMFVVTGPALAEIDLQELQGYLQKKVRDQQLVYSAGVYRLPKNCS
T1 sequence (Q9NYG5 whole entry): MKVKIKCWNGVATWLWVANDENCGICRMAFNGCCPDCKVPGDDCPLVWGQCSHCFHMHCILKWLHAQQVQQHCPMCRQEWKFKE
MDM2/P53, sequence (Q00987 whole entry): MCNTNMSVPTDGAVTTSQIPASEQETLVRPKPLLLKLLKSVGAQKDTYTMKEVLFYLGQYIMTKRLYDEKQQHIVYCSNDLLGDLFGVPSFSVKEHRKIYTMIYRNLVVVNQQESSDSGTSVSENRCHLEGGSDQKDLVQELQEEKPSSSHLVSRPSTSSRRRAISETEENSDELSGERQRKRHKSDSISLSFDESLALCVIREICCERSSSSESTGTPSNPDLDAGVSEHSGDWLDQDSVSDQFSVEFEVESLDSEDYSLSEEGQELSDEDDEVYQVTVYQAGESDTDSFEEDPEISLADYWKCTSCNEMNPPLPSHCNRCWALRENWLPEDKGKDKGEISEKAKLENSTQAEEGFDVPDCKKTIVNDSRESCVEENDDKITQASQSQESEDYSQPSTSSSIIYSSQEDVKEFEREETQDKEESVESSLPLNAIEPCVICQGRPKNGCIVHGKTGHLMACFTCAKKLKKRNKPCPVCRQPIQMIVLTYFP

Row | SMILES | IC50 (APC2/APC11 [1]) [nM] | IC50 (MDM2/P53) [nM] | further results
1 | O=C1/C(=C/c2ccc(-c3cccc4ccccc34)o2)SC(=S)N1Cc1ccccc1 [Compound 30, (5Z)-3-benzyl-5-{[5-(1-nephthyl)-2-furyl]methylene}-2-thioxo-1,3-thiazolidin-4-one] | 5490 | 2320 | –
2 | O=C(O)c1cccc(-c2ccc(/C=C3/SC(=S)N(c4cccc(Cl)c4)C3=O)o2)c1 [Compound 46, 3-(5-{(E)-[3-(3-chlorophenyl)-4-oxo-2-thioxo-1,3-thiazolidin-5-ylidene]methyl}-2-furyl)benzoic acid] | 910 | 4920 | –
3 | CN1C(=O)/C(=C\c2ccc(-c3cccc(Br)c3)o2)SC1=S [Compound 50, (5E)-5-{[5-(3-bromophenyl)-2-furyl]methylene]-3-methyl-2-thioxo-1,3-thiazolidin-4-one] | 3700 | 2690 | –
4 | Cc1c(N2C(=O)/C(=C\c3ccc(-c4ccc(Br)cc4)o3)SC2=S)c(=O)n(-c2ccccc2)n1C [Compound 51, (5E)-5-{[5-(4-bromophenyl)-2-furyl]methylene}-3-(1,5-dimethyl-3-oxo-2-phenyl-2,3-dihydro-1H-pyrazol-4-yl)-2-thioxo-1,3-thiazolidin-4-one] | 12100 | 9240 | –
5 | O=C1/C(=C\c2ccc(-c3cccc(C(F)(F)F)c3)o2)SC(=S)N1Cc1ccco1 [Compound 55, (5E)-3-(2-furylmethyl)-2-thioxo-5-({5-[3-(trifluoromethyl)phenyl]-2-furyl}methylene)-1,3-thiazolidin-4-one] | – | – | IC50 (APC2/APC11 [2]): 4000 nM and 10000 nM
6 | COc1ccc(N2C(=O)/C(=C\c3ccc(-c4ccc(Br)cc4)o3)SC2=S)cc1 [Compound 96, (5E)-5-{[5-(4-bromophenyl)-2-furyl]methylene}-3-(4-methoxyphenyl)-2-thioxo-1,3-thiazolidin-4-one] | 10000 | 560 | –
7 | COc1ccc(CN2C(=O)/C(=C/c3ccc(-c4ccccc4Cl)o3)SC2=S)cc1 [Compound 274, (5Z)-5-{[5-(2-chlorophenyl)-2-furyl]methylene}-3-(4-methoxybenzyl)-2-thioxo-11,3-thiazolidin-4-one] | 110 | 1180 | –
8 | C=CCN1C(=O)/C(=C/c2ccc(-c3cccc(Cl)c3)o2)SC1=S [Compound 284, (5Z)-3-allyl-5-{[5-(3-chlorophenyl)-2-furyl]methylene}-2-thioxo-1,3-thiazolidin-4-one] | – | – | IC50 (ROC2/CUL5): 200 nM; IC50 (ROC1/CUL1): 800 nM; IC50 (ROC1/CUL2): 800 nM
9 | CC(C)(C)OC(=O)[C@H](Cc1ccccc1)NC(=O)CN1C(=O)/C(=C/c2ccc(-c3ccccc3Cl)o2)SC1=S [Compound 301, tert-butyl N-[((5Z)-5-{[5-(2-chlorophenyl)-2-furyl]methylene}-4-oxo-2-thioxo-1,3-thiazolidin-3-yl)acetyl]phenylalaninate] | 410 | 930 | –
10 | C=CCN1C(=O)C(Cc2ccc(-c3ccccc3Cl)o2)SC1=S (stereo not shown) [Compound 304, 3-allyl-5-{[5-(2-chlorophenyl)-2-furyl]methyl}-2-thioxo-1,3-thiazolidin-4-one] | – | – | IC50 (ROC2/CUL5): 800 nM; IC50 (ROC1/CUL1): 1000 nM; IC50 (ROC1/CUL2): 1000 nM

Now from value to molecule, other results behind:

Row | IC50 (APC2/APC11 [1]) [nM] | IC50 (MDM2/P53) [nM] | SMILES | further results
11 | 35 | 74 | O=C1/C(=C\c2ccc(-c3cccc(C(F)(F)F)c3)o2)SC(=S)N1Cc1ccccc1 [Compound 54, (5E)-3-benzyl-2-thioxo-5-({5-[3-(trifluoromethyl)phenyl]-2-furyl}methylene)-1,3-thiazolidin-4-one] | –
12 | 5000 | 1500 | O=C(O)CN1C(=O)/C(=C\c2ccc(-c3ccc(Cl)c(Cl)c3)o2)SC1=S [Compound 82, ((5E)-5-{[5-(3,4-dichlorophenyl)-2-furyl]methylene}-4-oxo-2-thioxo-1,3-thiazolidin-3-yl)acetic acid] | –
13 | 2000 | – | COc1ccc(-c2ccc(/C=C3/SC(=S)NC3=O)o2)cc1Cl [Compound 172, (5E)-5-{[5-(3-chloro-4-methoxyphenyl)-2-furyl]methylene}-2-thioxo-1,3-thiazolidin-4-one] | IC50 (APC2/APC11 [2]): 2000 nM
14 | 320 | 1160 | O=C1/C(=C/c2ccc(-c3ccccc3Cl)o2)SC(=S)N1CCc1cccs1 [Compound 275, (5Z)-5-{[5-(2-chlorophenyl)-2-furyl]methylene}-3-[2-(2-thienyl)ethyl]-2-thioxo-1,3-thiazolidin-4-one] | –
15 | 560 | 250 | O=C1/C(=C/c2ccc(-c3ccccc3Cl)o2)SC(=S)N1Cc1ccco1 [Compound 280, (5Z)-5-{[5-(2-chlorophenyl)-2-furyl]methylene}-3-(2-furylmethyl)-2-thioxo-1,3-thiazolidin-4-one] | –
